What was measured:
[1] = tested on: Phakopsora pachyrhizi (the causal agent of Asian soybean rust); assay: Test A: preventive spray on soybean seedlings, visual disease rating (100 = 100% control; * 50 ppm, ** 10 ppm, *** 250 ppm); format: in vivo; settings: 100 = 100% disease control
Outline: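 Soybean seedlings sprayed to run-off with compound suspended in acetone/water with 250 ppm PEG400 surfactant, inoculated next day with P. pachyrhizi spores. Kept 24 h saturated at 22 °C, then 8 days at 22 °C before visual rating of disease control (0-100) relative to controls.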

[2] = tested on: Puccinia recondita f. sp. tritici (the causal agent of wheat leaf rust); assay: Test B: preventive spray on wheat seedlings, disease rating (100 = 100% control; * 50 ppm, ** 10 ppm, *** 250 ppm); format: in vivo; settings: 100 = 100% disease control
Outline: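 Wheat seedlings sprayed to run-off with compound in acetone/water (50/50) containing 250 ppm PEG400, inoculated next day with Puccinia recondita f. sp. tritici spores. Held 24 h saturated at 20° C, then 6 days at 20° C; disease control rated 0–100 relative to controls.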

[3] = 10 ppm test suspension, soybean seedlings
[4] = 10 ppm test suspension, wheat seedlings
[5] = 50 ppm test suspension, soybean seedlings
[6] = 50 ppm test suspension, wheat seedlings
[7] = 10 ppm test suspension, 0 = no control

Row | SMILES | Test A disease control rating [1, 3] [%] | Test B disease control rating [2, 4] [%] | other results
1 | CCO/C(=C\Oc1ccc(CN2CCCC2=O)cc1)C(F)(F)F [compound 224] | 0 | 0 | 
2 | CCO/C(=C\Oc1ccc(CN2CCC(C)(C)C2=O)cc1)C(F)(F)F [compound 225] | 0 | 0 | 
3 | CCO/C(=C\Oc1ccc(Cn2c(=O)oc3ccccc32)cc1)C(F)(F)F [compound 226] | 0 | 0 | 
4 | CCOC(=O)c1cnn(Cc2ccc(OCC(O)(O)C(F)(F)F)cc2)c1 [compound 227] | 99 | 55 | 
5 | C=C(C)COC(=O)c1cnn(Cc2ccc(OCC3(C(F)(F)F)OCCO3)cc2)c1 [compound 228] | 100 | 0 | 
6 | CCO/C(=C\Oc1ccc(C(=O)OC)cc1)C(F)(F)F [compound 230] | 0 | 0 | 
7 | CCOC(=O)c1ccn(Cc2ccc(OCC3(C(F)(F)F)OCCO3)cc2)n1 [compound 232] | 98 | 0 | 
8 | CCOC(=O)c1ccn(Cc2ccc(OCC(O)(O)C(F)(F)F)cc2)n1 [compound 233] |  |  | Test A disease control rating [1, 5]: 100%; Test B disease control rating [2, 6]: 96%
9 | CCOC(=O)c1ccnn1Cc1ccc(OCC(O)(O)C(F)(F)F)cc1 [compound 234] |  |  | Test A disease control rating [1, 5]: 100%; Test B disease control rating [2, 6]: 92%
10 | CON(Cc1ccc(OCC2(C(F)(F)F)OCCO2)cc1)C(=O)C(C)C [compound 235] | 97 | 0 | 
11 | CON(Cc1ccc(OCC2(C(F)(F)F)OCCO2)cc1)C(=O)C1CC1 [compound 236] | 75 | 0 | 
12 | CCCC(=O)N(Cc1ccc(OCC2(C(F)(F)F)OCCO2)cc1)OC [compound 237] | 97 | 0 | 
13 | CON(Cc1ccc(OCC2(C(F)(F)F)OCCO2)cc1)C(=O)OC(C)(C)C [compound 238] | 73 | 0 | 
14 | N#CCc1ccc(OCC2(C(F)(F)F)OCCO2)cc1 [compound 239] | 0 | 0 | 
15 | CCOCc1cnn(Cc2ccc(OCC3(C(F)(F)F)OCCO3)cc2)c1 [compound 240] | 99 | 0 | 
16 | CCOC(=O)c1ccnn1Cc1ccc(OC=C(OCC)C(F)(F)F)cc1 [compound 241] | 0 | 0 | 
17 | O=C(OCC1CCC1)c1cnn(Cc2ccc(OCC3(C(F)(F)F)OCCO3)cc2)c1 [compound 249] | 100 | 0 | 
18 | CCOC(=COc1ccc(Cn2nccc2C(=O)OC)cc1)C(F)(F)F [compound 250] | 0 | 0 | 
19 | CCOC(=COc1ccc(Cn2ccc(C(=O)OC)n2)cc1)C(F)(F)F [compound 251] | 100 | 9 | 
20 | CCOC(=COc1ccc(Cn2nccc2C(=O)OC(C)(C)C)cc1)C(F)(F)F [compound 252] | 0 | 0 | 
21 | CCOC(=COc1ccc(Cn2ccc(C(=O)OC(C)(C)C)n2)cc1)C(F)(F)F [compound 253] | 0 | 0 | 
22 | CCO/C(=C\Oc1ccc(Cn2ncnc2SC)cc1)C(F)(F)F [compound 260] |  |  | Test A disease control rating [1, 7]: 0%; Test B disease control rating [2, 7]: 0%
23 | CCO/C(=C\Oc1ccc(Cn2cnc(SC)n2)cc1)C(F)(F)F [compound 261] |  |  | Test A disease control rating [1, 7]: 0%; Test B disease control rating [2, 7]: 0%
24 | CCOC(=O)c1cnn(C(C)c2ccc(O/C=C(\OCC)C(F)(F)F)cc2)c1 (centres unmarked) [compound 267] |  |  | Test A disease control rating [1, 7]: 94%; Test B disease control rating [2, 7]: 0%
25 | CCOC(=O)C1CCN(Cc2ccc(O/C=C(\OCC)C(F)(F)F)cc2)CC1 [compound 268] |  |  | Test A disease control rating [1, 7]: 99%; Test B disease control rating [2, 7]: 0%
26 | CCOC(=O)C1CCCN(Cc2ccc(O/C=C(\OCC)C(F)(F)F)cc2)C1 (centres unmarked) [compound 269] |  |  | Test A disease control rating [1, 7]: 100%; Test B disease control rating [2, 7]: 0%
27 | O=C(OCC1CCCCC1)c1cnn(Cc2ccc(OCC3(C(F)(F)F)OCCO3)cc2)c1 [compound 272] |  |  | Test A disease control rating [1, 7]: 100%; Test B disease control rating [2, 7]: 0%
28 | O=C(NCC(F)(F)F)c1cnc(Cc2ccc(OCC(O)(O)C(F)(F)F)cc2)o1 [compound 274] |  |  | Test A disease control rating [1, 7]: 48%; Test B disease control rating [2, 7]: 0%

— patent US20240122180A1, “FUNGICIDAL HALOMETHYL KETONES AND HYDRATES AND THEIR MIXTURES” (FMC Corporation, priority 2020, published 2024)
